# Laboratory results taken from patent publication US8084497B2, “C-(2-phenyl-cyclohexyl)-methylamine compounds for therapy of fibromyalgia” (Gruenenthal GmbH, priority 2003, dated 2011).
# pKi: −log10 of the molar value. Counter-ions that a name gives are not always drawn. Marks after values point to notes of the source that are not given here.
# Tests used:
# [1] = biological target: T1, human μ-opiate receptor (Homo sapiens, UniProt P35372); experiment: Affinity for the human μ-opiate receptor ([3H]-naloxone displacement, CHO-K1 membrane preparation, SPA); type: binding
# T1 construct: purchased Perkin Elmer, Zaventem, Belgium RB-HOM; host or cells: CHO-K1 cells (recombinant expression)
# T1 sequence (P35372 whole entry): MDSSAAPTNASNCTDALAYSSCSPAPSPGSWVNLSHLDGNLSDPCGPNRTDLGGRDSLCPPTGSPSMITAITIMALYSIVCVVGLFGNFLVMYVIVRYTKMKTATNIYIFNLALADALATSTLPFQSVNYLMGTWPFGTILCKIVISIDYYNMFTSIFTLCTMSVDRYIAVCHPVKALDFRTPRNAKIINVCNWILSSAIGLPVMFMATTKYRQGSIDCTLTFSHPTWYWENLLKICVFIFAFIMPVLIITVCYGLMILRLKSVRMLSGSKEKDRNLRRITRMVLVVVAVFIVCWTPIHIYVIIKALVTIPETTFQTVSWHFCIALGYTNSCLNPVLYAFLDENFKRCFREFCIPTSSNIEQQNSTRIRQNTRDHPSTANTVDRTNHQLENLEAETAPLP
# Experimental: Investigation of the affinity for the human μ-opiate receptor The receptor affinity for the human μ-opiate receptor is determined in a homogeneous set-up in microtitre plates. For this, dilution series of the substances to be tested are incubated with a receptor membrane preparation (15-40 μg protein/250 μl incubation batch) of CHO-K1 cells which express the human μ-opiate receptor (RB-HOM receptor membrane preparation from Perkin Elmer, Zaventem, Belgium) in the presence of 1 nmol/l of the radioactive ligand [^3H]-naloxone (NET719, Perkin Elmer, Zaventem, Belgium) and 1 mg WGA-SPA-Beads (wheat germ agglutinin SPA beads from Amersham/Pharmacia, Freiburg, Germany) in a total volume of 250 μl for 90 minutes at room temperature. 50 mmol/l Tris-HCl supplemented with 0.05% sodium azide and with 0.06% bovine serum albumin is used as the incubation buffer. 25 μmol/l naloxone are additionally added for determination of the non-specific binding. After the end of the ninety-minute incubation time, the microtitre plates are centrifuged for 20 minutes at 1,000 g and the radioactivity is measured in a […] (Microbeta-Trilux, PerkinElmer Wallac, Freiburg, Germany). The percentage displacement of the radioactive ligand from its binding to the human μ-opiate receptor is determined at a concentration of the test substances of 1 μmol/l and stated as the percentage inhibition of the specific binding. Starting from the percentage displacement by various concentrations of the test substances, IC50 inhibitory concentrations which cause a 50 percent displacement of the radioactive ligand are calculated. By conversion by means of the Cheng-Prusoff relationship, Ki values for the test substances are obtained (Cheng and Prusoff 1973).
# [2] = biological target: T2, 5-HT reuptake (Rattus norvegicus, UniProt P31652); experiment: 5-HT reuptake inhibition in rat brain synaptosomes (medulla+pons); type: biochemical
# T2 construct: synaptosomes are freshly isolated from areas of the rat brain; from tissue; host or cells: P2 synaptosome fraction from the medulla+pons region of male rat brain
# T2 sequence (P31652 whole entry): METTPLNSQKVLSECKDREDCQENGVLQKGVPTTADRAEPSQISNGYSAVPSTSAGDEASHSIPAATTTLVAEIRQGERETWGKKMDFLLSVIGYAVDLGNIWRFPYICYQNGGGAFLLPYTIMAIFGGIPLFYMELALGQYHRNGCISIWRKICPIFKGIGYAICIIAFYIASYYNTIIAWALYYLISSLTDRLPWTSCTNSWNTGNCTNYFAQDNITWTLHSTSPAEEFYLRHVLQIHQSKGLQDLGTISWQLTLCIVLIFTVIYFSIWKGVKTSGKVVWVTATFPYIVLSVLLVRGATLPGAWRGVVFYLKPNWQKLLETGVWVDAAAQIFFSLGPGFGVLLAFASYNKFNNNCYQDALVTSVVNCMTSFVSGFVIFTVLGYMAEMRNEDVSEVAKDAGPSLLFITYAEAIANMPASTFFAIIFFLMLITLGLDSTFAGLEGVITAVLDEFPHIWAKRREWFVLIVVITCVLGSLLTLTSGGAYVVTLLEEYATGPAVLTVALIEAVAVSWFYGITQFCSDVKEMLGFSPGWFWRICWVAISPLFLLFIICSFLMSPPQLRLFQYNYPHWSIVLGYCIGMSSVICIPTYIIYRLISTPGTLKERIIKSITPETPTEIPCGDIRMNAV
# Source text: In order to be able to carry out these in vitro studies, synaptosomes are freshly isolated from areas of the rat brain. […] For the NA reuptake these vesicular particles are isolated from the hypothalamus, and for the 5-HT reuptake from the medulla+pons region of male rat brains.
# The IC50 values were obtained with the aid of the computer program “Figure P” (version 6.0, Biosoft, Cambridge, England). […] The computer program “Ligand” (version 4, Biosoft, England) was used to display KD values.
# [3] = test system: rats; experiment: Elevated plus maze test on rats (onset of anxiolytic actions); type: in vivo, rat
# Experimental: In the elevated plus maze test the actions of substances on the endogenous anxiety of rodents towards open and elevated places are determined.
# The apparatus was placed approx. 1 m above the floor and comprised four arms arranged in a cross, two opposite arms being open and two closed. […] The duration of stay and the number of entries into the open arms were evaluated. The group size was 10-15 animals. The single administration of the test substances or of the control vehicle took place 30 min before testing.
# It is reported in the literature that benzodiazepines induce an increased duration of stay and entries into the open compartment. […] The typical disadvantages of monoamine reuptake inhibitors in the therapy of anxiety patients, namely the delayed onset of action and the initially anxiogenic-like effects, can thus be followed in the elevated plus maze test on rats. The elevated plus maze test is therefore a suitable animal model for the investigation of new therapies which have the aim of accelerating the onset of action of monoamine reuptake inhibitors.
# Statistical evaluation: Anova plus post-hoc Dunnett's test (Significance level: p<0.05; *: significant versus vehicle; #: significant versus intrinsic effect of 16 mg/kg i.p. 3-(2-dimethylaminomethyl-cyclohexyl)-phenol).
# [4] = 8 mg/kg i.p., single administration 30 min before testing
# [5] = 16 mg/kg i.p., single administration 30 min before testing
# [6] = 2 mg/kg i.p., single administration
# [7] = 1 mg/kg i.p., single administration
SMILES,pKi [1],pKi [2],"Open arms: Duration of stay [3, 5]","Open arms: Number of entries [3, 5]",anxiolytic action (in words) ([3]; single administration),duration of stay in the open arms (in words) ([3]; single administration),number of entries into the open arms (in words) ([3]; single administration),further results
"CN(C)CC1CCCCC1c1cccc(O)c1 (centres unmarked) [3-(2-Dimethylaminomethyl-cyclohexyl)-phenol, hydrochloride]",6.85,7.30,,,,,,
CN(C)CC1CCCCC1c1cccc(O)c1 (centres unmarked) [3-(2-Dimethylaminomethyl-cyclohexyl)-phenol],,,118.2* sec,8.5,significant anxiolytic actions,significant increase,clear increase,"ratio between the μ-opioid component and the monoamine reuptake inhibition (in words) ([1]; versus 5-HT and NA reuptake inhibition): balanced ratio; Open arms: Duration of stay [3, 4]: 29.0 s; Open arms: Number of entries [3, 4]: 3.2; anxiogenic-like action (in words) ([3]; acute administration): In no case was an anxiogenic-like action induced"
CNCC1CCCCC1c1cccc(O)c1 (centres unmarked) [3-(2-Methylaminomethyl-cyclohexyl)-phenol hydrochloride],6.06,5.25,,,,,,
CN1C(=O)CN=C(c2ccccc2)c2cc(Cl)ccc21 [Diazepam],,,,,,increase,increase,"Open arms: Duration of stay [3, 6]: 77.7* sec; Open arms: Number of entries [3, 6]: 8.1*"
C=CCN1CC[C@]23c4c5ccc(O)c4O[C@H]2C(=O)CC[C@@]3(O)[C@H]1C5 [Naloxone],,,,,,,,"Open arms: Duration of stay [3, 7]: 28.6 s; Open arms: Number of entries [3, 7]: 4.5"
COc1ccc(C(CN(C)C)C2(O)CCCCC2)cc1 (centres unmarked) [Venlafaxine],,,66.9 s,4.6,no anxiolytic action,,,"μ-Opioid receptor affinity (Ki values) ([1]; [3H]-naloxone, CHO-K1 membranes): inactive"
